# Measured values taken from patent US20050137230A1, “Carboxamide derivatives” (priority 2000, published 2005).
# Assays:
# factor Xa = factor Xa (Homo sapiens, UniProt P00742); assay: inhibition of factor Xa; type: biochemical
# From the text: The inhibition of factor Xa by the compounds according to the invention and the measurement of the anticoagulant and antithrombotic activity can be determined by conventional in-vitro or in-vivo methods. A suitable method is described, for example, by J. Hauptmann et al. in Thrombosis and Haemostasis 1990, 63, 220-223.
# The inhibition of factor Xa can be measured, for example, by the method of T. Hara et al. in Thromb. Haemostas. 1994, 71, 314-319.
# factor VIIa = target: T1, factor VIIa (Homo sapiens, UniProt P08709); assay: inhibition of factor VIIa; type: biochemical
# T1 sequence (P08709 213-466 limits assumed): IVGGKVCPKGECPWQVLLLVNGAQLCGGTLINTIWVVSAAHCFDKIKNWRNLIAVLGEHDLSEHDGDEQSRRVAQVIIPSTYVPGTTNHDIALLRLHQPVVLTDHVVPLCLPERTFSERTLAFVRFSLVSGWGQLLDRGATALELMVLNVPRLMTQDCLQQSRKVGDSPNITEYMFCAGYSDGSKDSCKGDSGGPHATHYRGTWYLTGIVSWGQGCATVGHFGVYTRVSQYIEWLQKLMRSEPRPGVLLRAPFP
# T1 sequence (P08709 61-212 partner limits assumed): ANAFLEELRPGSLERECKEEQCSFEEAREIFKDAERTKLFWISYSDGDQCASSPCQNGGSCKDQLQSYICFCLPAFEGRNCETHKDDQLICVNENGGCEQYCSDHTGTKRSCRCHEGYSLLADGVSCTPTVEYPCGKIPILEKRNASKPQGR
# From the text: The inhibition of factor VIIa by the compounds according to the invention and the measurement of the anticoagulant and antithrombotic activity can be determined by conventional in-vitro or in-vivo methods. A conventional method for the measurement of the inhibition of factor VIIa is described, for example, by H. F. Ronning et al. in Thrombosis Research 1996, 84, 73-81.
# Sequence of factor Xa (P00742 235-488 limits assumed): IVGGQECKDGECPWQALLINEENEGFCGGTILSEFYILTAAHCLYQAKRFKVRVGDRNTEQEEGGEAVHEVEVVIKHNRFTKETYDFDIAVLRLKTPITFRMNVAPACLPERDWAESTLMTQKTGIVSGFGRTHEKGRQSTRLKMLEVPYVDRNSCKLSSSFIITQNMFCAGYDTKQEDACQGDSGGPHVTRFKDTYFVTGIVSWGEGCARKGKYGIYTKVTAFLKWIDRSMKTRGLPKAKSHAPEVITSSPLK
# Sequence of factor Xa (P00742 41-179 partner limits assumed): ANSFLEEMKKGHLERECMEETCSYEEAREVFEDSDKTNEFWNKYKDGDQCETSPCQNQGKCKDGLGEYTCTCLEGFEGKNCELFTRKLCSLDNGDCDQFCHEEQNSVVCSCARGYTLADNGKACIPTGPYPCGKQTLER
IC50 (factor Xa) [nM],IC50 (factor VIIa) [nM],SMILES
86,65,CS(=O)(=O)c1ccccc1-c1ccc(NC(=O)[C@@H](Cc2ccccc2)NC(=O)Nc2ccc(Cl)cc2)cc1 [(R)-2-[3-(4-chlorophenyl)ureido]-N-(2′-methylsulfonylbiphenyl-4-yl)-3-phenylpropionamide]
410,–,CC(C)C[C@@H](NC(=O)Nc1ccc(Cl)cc1)C(=O)NCC1CCN(c2ccncc2)CC1 [(R)-2-[3-(4-chlorophenyl)ureido]-N-[1-(pyridin-4-yl)piperidin-4-ylmethyl]-4-methylvaleramide]
55,–,O=C(Nc1ccc(Cl)cc1)N[C@@H](C(=O)NCC1CCN(c2ccncc2)CC1)c1ccccc1 [(R)-2-[3-(4-chlorophenyl)ureido]-N-[1-(pyridin-4-yl)piperidin-4-ylmethyl]-2-phenylacetamide]
2000,930,CCC[C@@H](NC(=O)Nc1ccccc1)C(=O)Nc1ccc(-c2ccccc2S(C)(=O)=O)cc1 [(R)-2-(3-phenylureido)-N-(2′-methylsulfonylbiphenyl-4-yl)pentanoamide]
3800,2700,CCC[C@H](NC(=O)Nc1ccccn1)C(=O)Nc1ccc(-c2ccccc2S(C)(=O)=O)cc1 [(S)-2-(3-pyridin-2-ylureido)-N-(2′-methylsulfonylbiphenyl-4-yl)-pentanoamide]

# Second part, the compound before the results:
SMILES,IC50 (factor Xa) [nM],IC50 (factor VIIa) [nM]
CS(=O)(=O)c1ccccc1-c1ccc(NC(=O)C(Cc2cccs2)NC(=O)Nc2ccccc2)cc1 (centres unmarked) [2-(3-phenylureido)-N-(2′-methylsulfonylbiphenyl-4-yl)-3-(thiophen-2-yl)-propionamide],1200,750
O=C(Nc1ccc(Cl)cc1)OC(C(=O)NCC1CCN(c2ccncc2)CC1)c1ccccc1 (centres unmarked) [2-[N-(4-chlorophenyl)-carbamoyloxy]-N-[1-(pyridin-4-yl)piperidin-4-ylmethyl]-2-phenylacetamide],71,–
CS(=O)(=O)c1ccccc1-c1ccc(NC(=O)C(NC(=O)Nc2ccccc2)c2ccccc2)cc1 (centres unmarked) [2-(3-phenylureido)-N-(2′-methylsulfonylbiphenyl-4-yl)-2-phenyl-acetamide],2300,2000
CCCC[C@@H](NC(=O)Nc1ccccc1)C(=O)Nc1ccc(-c2ccccc2S(C)(=O)=O)cc1 [(R)-2-(3-phenylureido)-N-(2′-methylsulfonylbiphenyl-4-yl)hexanoamide],3000,170
CCCC(NC(=O)Nc1ccc(Cl)cc1)C(=O)NCC1CCN(c2ccncc2)CC1 (centres unmarked) [2-[3-(4-chlorophenyl)ureido]-N-[1-(pyridin-4-yl)piperidin-4-ylmethyl]-valeramide],580,–
CSCCC(NC(=O)Nc1ccccc1)C(=O)Nc1ccc(-c2ccccc2S(C)(=O)=O)cc1 (centres unmarked) [2-(3-phenylureido)-N-(2′-methylsulfonylbiphenyl-4-yl)-4-methylsulfanylbutyramide],2300,1800
CS(=O)(=O)c1ccccc1-c1ccc(NC(=O)C(Cc2cnc[nH]2)NC(=O)Nc2ccccc2)cc1 (centres unmarked) [2-(3-phenylureido)-N-(2′-methylsulfonylbiphenyl-4-yl)-3-(3H-imidazol-4-yl)propionamide],2000,2000
